Assay results: US20080206311A1, “Sucrase Activity Inhibitor, Glucoamylase Activity Inhibitor and Food and Feed Containing the Same” (MITSUI SUGAR CO., LTD., priority 2005, published 2008)
Values belong to the molecule of their own block, whether it stands above or below them.

Tests used:
sucrase = target: T1, sucrase (Rattus norvegicus, UniProt P23739); experiment: Sucrase activity inhibition with rat small-intestinal enzyme liquid, substrate sucrose; type: biochemical
T1 construct: This liquid contained a mixture of enzymes present in small intestine, such as sucrose, glucoamylase, maltase, and isomaltase; tissue Sigma Corporation; host or cells: rat small intestine (acetone powder), buffer extract, unpurified
T1 sequence (P23739 whole entry): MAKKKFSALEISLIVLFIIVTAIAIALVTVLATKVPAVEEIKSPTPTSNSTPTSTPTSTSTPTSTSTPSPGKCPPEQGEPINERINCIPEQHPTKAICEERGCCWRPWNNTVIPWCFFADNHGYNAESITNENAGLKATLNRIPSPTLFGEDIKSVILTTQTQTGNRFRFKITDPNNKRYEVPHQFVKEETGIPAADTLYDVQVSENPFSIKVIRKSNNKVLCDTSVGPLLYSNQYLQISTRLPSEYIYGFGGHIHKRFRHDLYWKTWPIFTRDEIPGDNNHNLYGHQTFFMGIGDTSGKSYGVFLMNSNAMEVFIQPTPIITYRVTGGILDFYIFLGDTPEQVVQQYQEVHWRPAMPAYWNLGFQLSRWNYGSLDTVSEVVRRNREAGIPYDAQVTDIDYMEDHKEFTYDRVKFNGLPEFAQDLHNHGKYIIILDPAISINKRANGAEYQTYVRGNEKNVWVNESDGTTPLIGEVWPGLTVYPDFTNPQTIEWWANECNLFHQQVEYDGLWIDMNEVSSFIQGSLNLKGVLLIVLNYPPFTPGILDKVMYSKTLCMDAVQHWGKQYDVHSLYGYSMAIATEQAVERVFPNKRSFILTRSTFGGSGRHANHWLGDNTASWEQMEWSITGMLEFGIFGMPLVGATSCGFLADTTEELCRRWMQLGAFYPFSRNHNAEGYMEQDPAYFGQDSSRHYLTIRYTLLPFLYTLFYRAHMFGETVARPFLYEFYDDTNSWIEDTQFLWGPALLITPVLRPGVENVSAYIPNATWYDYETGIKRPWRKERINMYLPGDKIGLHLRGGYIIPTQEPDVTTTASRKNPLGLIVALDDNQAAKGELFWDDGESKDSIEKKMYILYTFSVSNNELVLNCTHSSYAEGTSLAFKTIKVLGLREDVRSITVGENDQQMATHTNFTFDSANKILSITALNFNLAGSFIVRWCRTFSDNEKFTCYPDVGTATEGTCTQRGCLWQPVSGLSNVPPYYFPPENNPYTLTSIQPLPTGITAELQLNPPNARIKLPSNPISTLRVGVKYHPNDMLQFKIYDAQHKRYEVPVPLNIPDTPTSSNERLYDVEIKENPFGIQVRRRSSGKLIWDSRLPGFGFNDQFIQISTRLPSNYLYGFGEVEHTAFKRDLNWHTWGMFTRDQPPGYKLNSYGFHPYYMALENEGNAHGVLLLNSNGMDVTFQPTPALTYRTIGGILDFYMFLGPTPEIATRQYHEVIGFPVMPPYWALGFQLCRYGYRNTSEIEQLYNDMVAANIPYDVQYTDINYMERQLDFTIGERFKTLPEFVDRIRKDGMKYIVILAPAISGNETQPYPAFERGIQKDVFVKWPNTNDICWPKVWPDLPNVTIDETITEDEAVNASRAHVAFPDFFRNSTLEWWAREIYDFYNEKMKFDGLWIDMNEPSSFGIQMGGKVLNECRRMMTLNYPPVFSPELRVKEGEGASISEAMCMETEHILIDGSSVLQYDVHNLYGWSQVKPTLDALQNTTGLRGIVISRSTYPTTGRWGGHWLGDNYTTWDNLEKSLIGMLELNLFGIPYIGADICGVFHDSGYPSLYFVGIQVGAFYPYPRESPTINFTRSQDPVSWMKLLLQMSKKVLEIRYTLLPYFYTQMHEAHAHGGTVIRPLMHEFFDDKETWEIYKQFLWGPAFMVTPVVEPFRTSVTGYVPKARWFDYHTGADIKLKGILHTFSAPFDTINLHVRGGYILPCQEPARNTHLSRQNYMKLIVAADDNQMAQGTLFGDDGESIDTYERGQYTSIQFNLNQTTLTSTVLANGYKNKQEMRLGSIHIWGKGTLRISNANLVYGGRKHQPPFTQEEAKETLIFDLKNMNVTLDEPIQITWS
Method: (§1) Palatinose (trade name: Palatinose IC, ex Shin Mitsui Sugar Co., Ltd.) (test sample) was used as a sample for investigating each enzyme activity inhibitory effect. Maltose and sucrose were used as substrates for maltase and sucrose, respectively. The test sample and the substrates were dissolved in 0.1 M phosphate buffer (pH 6.8) at the concentration shown in Table 1 below to prepare test solutions (Solutions 4 and 5). Also, the test sample or the substrates were dissolved in 0.1 M phosphate buffer (pH 6.8), respectively to at the concentration shown in Table 1 below to prepare control solutions (Solution 1 for the test sample and Solutions 2 and 3 for the substrates).
(§2) Two grams of rat small-intestinal acetone powder (ex Sigma Corporation) were dissolved in 20 ml of 0.1 M phosphate buffer (pH 6.8), left standing one day at 5° C., and subsequently subjected to centrifugal separation (8000 rpm×15 min.). The supernatant was filtered through a 0.8 μm membrane filter to obtain a small-intestinal enzyme liquid. This liquid contained a mixture of enzymes present in small intestine, such as sucrose, glucoamylase, maltase, and isomaltase.
(§3) Each 0.25 ml of the small-intestinal enzyme liquid was added to each 5 ml of Solutions 1 through 5 and placed in a water bath at 37° C. to allow them to react for 60 min. while shaken at 60 strokes/min. After the reaction, they were heated in a boiling water bath for 3 min. for inactivation of the enzymes.
(§4) The glucose concentration in each solution after the reaction was measured using the F-kit Glucose (ex Roche). A liberated glucose concentration (g/l) was calculated by subtracting the blank value (0.1 M phosphate buffer alone) and the concentration of glucose originally contained in the test sample from each glucose concentration measured.
(§5) Next, each of the liberated glucose concentration was input in the following equation to obtain decomposition inhibition ratio for maltase and sucrose. In the present tests, the substrates and the inhibitors were decomposed by enzymes present in the small-intestinal enzyme liquid. However, the enzymes decomposing the substrates are different from the enzymes decomposing the inhibitors. The decomposition inhibition ratio was determined as a measure for the inhibitory effect. When the inhibitor was added, the glucose concentration was lower than that seen when the substrate alone was reacted. A higher decomposition inhibition ratio means a stronger inhibitory effect.
(§6) Decomposition inhibition ratio,%={(A+B)−(AB)}+(A+B)×100 [Equation 1]
(§7) wherein (A+B) indicates a sum of a liberated glucose concentration in the control solution containing the test sample alone after the reaction (A) and a liberated glucose concentration in the control solution containing the substrate alone after the reaction (B); and (AB) indicates a liberated glucose concentration in the test solution containing the test sample (A) and the substrate (B), after the reaction.
The procedures in Example 1 were repeated with the exception that the test solutions contained 5% of sucrose and 0.5%, 1.0%, 3.0% or 5.0% of palatinose to examine intensity of the sucrose activity inhibition. A control solution contained 5% of sucrose in 0.1 M phosphate buffer (pH 6.8).
The procedures in Example 1 were repeated with the exception that palatinit and palatinose were used as test samples and sucrose was used as a substrate. The test samples and the substrate were dissolved in 0.1 M phosphate buffer (pH 6.8) to attain the concentration shown in Table 3 to thereby prepare two test solutions. Besides, each one of the test samples or the substrate was dissolved in 0.1 M phosphate buffer (pH 6.8) to attain the concentration shown in Table 3 to thereby prepare control solutions. Each 5 ml of the aforementioned test solutions or the control solutions was subjected to the enzymatic reaction according to the same procedures as in Example 1. The glucose concentration and the fructose concentration were measured. […]

[1] = tested on: small-intestinal enzyme liquid; experiment: Decomposition of a saccharide alone (control solution) by small-intestinal enzyme liquid; type: biochemical, rat; conditions: 5% saccharide alone; for Liberated galactose concentration: Test Example 3
Method: as §1, §2, §3, §4
The fructose concentration was measured using the F-kit Fructose (ex Roche). The liberated fructose concentration, g/l, was obtained by subtracting the blank value (0.1 M phosphate buffer alone) from the resultant fructose concentration.
(§8) The procedures in Example 1 were repeated with the exception that palatinit, palatinose or isomaltose was used as a test sample and lactose was used as a substrate. The test samples and the substrate were dissolved in 0.1 M phosphate buffer (pH 6.8) to attain the concentration shown in Table 5 to thereby prepare three test solutions. Besides, each of the test samples or the substrate was dissolved in 0.1 M phosphate buffer (pH 6.8) to attain the concentration shown in Table 5 to thereby prepare control solutions. Each 5 ml of the aforementioned test solutions and the control solutions was subjected to the enzymatic reaction according to the same procedures as in Example 1. The glucose concentration, the fructose concentration and the galactose concentration were measured. The galactose concentration was measured using F-kit Galactose (ex Roche). The liberated galactose concentration, g/l, was calculated by subtracting the blank value (0.1 M phosphate buffer alone) from the measured galactose concentration.

lactase = target: T2, lactase (Rattus norvegicus, UniProt Q02401); experiment: Lactase activity inhibition with rat small-intestinal enzyme liquid, substrate lactose; type: biochemical; conditions: 5% lactose + 5% test sample
T2 construct: tissue Sigma Corporation; host or cells: rat small intestine (acetone powder), buffer extract, unpurified
T2 sequence (Q02401 868-1928): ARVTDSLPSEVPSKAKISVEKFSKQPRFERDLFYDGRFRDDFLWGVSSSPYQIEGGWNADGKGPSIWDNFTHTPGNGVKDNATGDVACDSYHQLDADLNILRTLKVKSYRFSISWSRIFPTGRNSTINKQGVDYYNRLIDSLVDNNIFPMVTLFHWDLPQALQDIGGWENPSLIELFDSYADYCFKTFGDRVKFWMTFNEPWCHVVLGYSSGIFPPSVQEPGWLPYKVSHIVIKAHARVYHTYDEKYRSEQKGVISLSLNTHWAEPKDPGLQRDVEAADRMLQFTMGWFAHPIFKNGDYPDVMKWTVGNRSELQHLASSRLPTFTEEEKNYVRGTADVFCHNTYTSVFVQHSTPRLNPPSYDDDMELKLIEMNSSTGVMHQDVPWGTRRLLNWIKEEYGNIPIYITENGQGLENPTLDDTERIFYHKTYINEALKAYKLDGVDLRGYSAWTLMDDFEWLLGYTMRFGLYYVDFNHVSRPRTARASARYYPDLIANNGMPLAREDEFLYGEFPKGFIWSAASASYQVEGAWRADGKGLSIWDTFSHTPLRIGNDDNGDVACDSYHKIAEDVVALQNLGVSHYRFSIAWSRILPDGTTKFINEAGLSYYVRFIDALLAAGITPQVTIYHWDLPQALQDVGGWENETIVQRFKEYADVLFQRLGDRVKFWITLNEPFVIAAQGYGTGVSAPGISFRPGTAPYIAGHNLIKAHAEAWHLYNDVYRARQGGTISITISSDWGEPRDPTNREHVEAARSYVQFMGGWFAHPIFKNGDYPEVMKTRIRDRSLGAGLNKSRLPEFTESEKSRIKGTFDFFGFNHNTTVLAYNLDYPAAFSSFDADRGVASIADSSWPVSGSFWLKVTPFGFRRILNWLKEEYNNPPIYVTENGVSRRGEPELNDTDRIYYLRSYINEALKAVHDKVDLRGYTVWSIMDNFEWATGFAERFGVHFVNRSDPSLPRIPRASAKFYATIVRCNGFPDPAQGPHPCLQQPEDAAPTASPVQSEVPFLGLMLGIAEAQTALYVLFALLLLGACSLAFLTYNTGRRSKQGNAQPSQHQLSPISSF
Method: as §2, §3, §4, §5, §6, §7, §8

glucoamylase = experiment: Glucoamylase activity inhibition with rat small-intestinal enzyme liquid, substrate soluble starch; type: biochemical; conditions: 5% soluble starch + 5% test sample
Method: as §2, §3, §4, §5, §6, §7
The procedures in Example 1 were repeated with the exception that palatinose and palatinit were used as a test sample and soluble starch was used as a substrate. The test samples and the substrate were dissolved in 0.1 M phosphate buffer (pH 6.8) to attain the concentration shown in Table 6 to thereby prepare two test solutions. Besides, each of the test samples or the substrate was dissolved in 0.1 M phosphate buffer (pH 6.8) to attain the concentration shown in Table 6 to thereby prepare control solutions. Each 5 ml of the aforementioned test solutions and the control solutions was subjected to the enzymatic reaction according to the same procedures as in Example 1 and the liberated glucose concentration and the decomposition inhibition ratio were measured.
The procedures in Example 1 were repeated with the exception that trehalulose was used as a test sample and soluble starch was used as a substrate. The test sample and the substrate were dissolved in 0.1 M phosphate buffer (pH 6.8) to attain the concentration shown in Table 9 to thereby prepare a test solution. Besides, the test sample or the substrate was dissolved in 0.1 M phosphate buffer (pH 6.8) to attain the concentration shown in Table 9 to thereby prepare control solutions. Each 5 ml of the aforementioned test solution and the control solutions was subjected to the enzymatic reaction according to the same procedures as in Example 1 and the liberated glucose concentration and the decomposition inhibition ratio were measured.
The procedures in Example 1 were repeated with the exception that trehalose was used as a test sample and soluble starch was used as a substrate. […]

[2] = 5% sucrose + 5% test sample, Example 3 / Test Example 2
[3] = 5% sucrose + 5% test sample, Example 5 / Test Example 4

Molecule: OC[C@H]1O[C@H](OC[C@H]2OC(O)[C@H](O)[C@@H](O)[C@@H]2O)[C@H](O)[C@@H](O)[C@@H]1O (stereo partly drawn) [isomaltose, reference compound]
Total concentration of liberated monosaccharides (glucose + fructose) (sucrase; 5% sucrose + 5% isomaltose): 2.88 g/L
Sucrase activity inhibitory effect (in words) (sucrase; 5% sucrose + 5% test sample): has a sucrose activity inhibitory effect
Decomposition inhibition ratio, %, against sucrase (sucrase; [2]): 31%
Liberated fructose concentration (sucrase; [2]): 0.70 g/L
Liberated glucose concentration (sucrase; [2]): 2.18 g/L
Liberated fructose concentration ([1]; Example 3 / Test Examples 2, 3): 0.02 g/L
Liberated glucose concentration ([1]; Example 3 / Test Examples 2, 3): 2.14 g/L
Liberated galactose concentration [1]: 0.00 g/L
Decomposition inhibition ratio, %, against lactase (lactase): −1%
Lactase activity inhibitory effect (in words) (lactase): no lactose inhibitory effect was appreciable
Liberated fructose concentration (lactase): 0.00 g/L
Liberated galactose concentration (lactase): 0.06 g/L
Liberated glucose concentration (lactase): 2.41 g/L

Molecule: OC[C@H]1O[C@H](O[C@H]2O[C@H](CO)[C@@H](O)[C@H](O)[C@H]2O)[C@H](O)[C@@H](O)[C@@H]1O [trehalose, reference compound]
Sucrase activity inhibitory effect (in words) (sucrase; 5% sucrose + 5% test sample): substantially no sucrose activity inhibitory effect
Decomposition inhibition ratio, %, against sucrase (sucrase; [3]): 49%
Liberated glucose concentration (sucrase; [3]): 1.683 g/L
Liberated glucose concentration ([1]; Example 5 / Test Example 4, sucrase activity inhibition test): 1.656 g/L
Liberated glucose concentration ([1]; Example 6 / Test Example 5, glucoamylase activity inhibition test): 0.333 g/L
Glucoamylase activity inhibitory effect (in words) (glucoamylase): has a glucoamylase activity inhibitory effect, but the effect is very weak
Decomposition inhibition ratio, %, against glucoamylase (glucoamylase; Example 6 / Test Example 5): 14%
Liberated glucose concentration (glucoamylase; Example 6 / Test Example 5): 2.349 g/L

More lines, now with the values ahead:

Liberated fructose concentration ([1]; Example 3 / Test Examples 2, 3): 0.00 g/L
Liberated glucose concentration ([1]; Example 3 / Test Examples 2, 3): 0.23 g/L
Liberated galactose concentration [1]: 0.16 g/L
Molecule: OC[C@H]1O[C@@H](O[C@H]2[C@H](O)[C@@H](O)C(O)O[C@@H]2CO)[C@H](O)[C@@H](O)[C@H]1O (stereo partly drawn) [lactose]

Liberated glucose concentration ([1]; 37° C., 60 min, pH 6.8, Example 1 / Test Example 1): 4.956 ± 0.423 g/L
Molecule: OC[C@H]1O[C@H](O[C@H]2[C@H](O)[C@@H](O)[C@H](O)O[C@@H]2CO)[C@H](O)[C@@H](O)[C@@H]1O [maltose]

Liberated glucose concentration ([1]; Example 4): 4.657 g/L
Liberated glucose concentration ([1]; Example 6 / Test Example 5): 2.400 g/L
Molecule: soluble starch
